Measured values reported in US8183373B2, “Solid state forms of sitagliptin salts” (Teva Pharmaceutical Industries Ltd., priority 2010, dated 2012).
Counter-ions that a name gives are not always drawn.

Tests used:
Type in all cases: physicochemical
[1] = Stability test in 0-100% relative humidity cells, 7 days, room temperature (XRPD and TGA); conditions: for Polymorphically stable up to (relative humidity): 7 days at room temperature; for Equilibrium amount of water: from TGA of the humidity test
Procedure: A sample of form S14 was equilibrated in 0-100% relative humidity cells for 7 days at room temperature. The samples were analyzed by XRPD and TGA. […] 10-15 mg samples were placed into 150 μL alumina crucibles and scanned between 25-250° C. at 10°/minute heating rate under 40 ml/minute N2 flow rate. For XRPD the ARL instrument was used. A sample of form S16 was equilibrated in 0-100% relative humidity cells for 7 days at room temperature. The samples were analyzed by XRPD and TGA. […] 10-15 mg samples were placed into 150 μL alumina crucibles and scanned between 25-250° C. at 10°/minute heating rate under 40 ml/minute N2 flow rate. For XRPD the ARL instrument was used.

[2] = Solubility of Form S14 in aqueous media at 37° C.; conditions: for solubility: thermodynamic from solid, read-out: Concentration (solubility)
Procedure: (§1) Solubility was tested by addition of portions of […] solution to 25 mg of STG salt and stirring it at 37° C. for 1-2 minutes till dissolved. Form S14 was also found to be chemically and polymorphically stable.

[3] = Chemical and polymorphic storage stability of Form S14; conditions: six months at 25° C.
Procedure: as §1

[4] = Storage of a crystalline form under controlled relative humidity, form determined by powder XRD
Procedure: About 100 mg of Sitagliptin L-malate form I1 was put in an open yellow plastic cap, and kept at 100% relative humidity (RH) and room temperature for 6 days. It was then analyzed by powder XRD, and found to have transformed into form I2.
About 150 mg of Sitagliptin sulfate form S2 was put in an open Petri dish, and kept at 100±5% RH and room temperature for 12 days. It was then analyzed by powder XRD, and found to have transformed into form S9.
About 150 mg of Sitagliptin sulfate form S6 was put in an open Petri dish, and kept at 100±5% RH and room temperature for 12 days. It was then analyzed by powder XRD, and found to have transformed into form S9.
About 150 mg of Sitagliptin sulfate form S14 was stored under 80% RH at 25° C. for 7 days. The sample was then tested by XRPD and determined to be crystal form Si of Sitagliptin sulfate.
About 150 mg of Sitagliptin sulfate form S14 was stored under 100% RH at 25° C. for 7 days.
About 150 mg of Sitagliptin sulfate form S14 was stored under 70% RH at 25° C. for 7 days. The sample was then tested by XRPD and determined to be crystal form S1 of Sitagliptin sulfate.
About 150 mg of Sitagliptin sulfate form S14 was stored under 60% RH at 40° C. for 3 days. The sample was then tested by XRPD and determined to be crystal form S1 of Sitagliptin sulfate.

[5] = Water solubility of Form S16 (European Pharmacopoeia classification)
[6] = 0% RH, 7 days, room temperature
[7] = 20% RH, 7 days, room temperature
[8] = 40% RH, 7 days, room temperature
[9] = 60% RH, 7 days, room temperature
[10] = 80% RH, 7 days, room temperature
[11] = 100% RH, 7 days, room temperature

Hygroscopicity [1]	% weight loss (TGA) [1, 6]	% weight loss (TGA) [1, 7]	% weight loss (TGA) [1, 8]	% weight loss (TGA) [1, 9]	% weight loss (TGA) [1, 10]	% weight loss (TGA) [1, 11]	Polymorphically stable up to (relative humidity) [1]	% weight loss (TGA) ([1]; Before the experiment)	Equilibrium amount of water [1]	Compound	also measured
hygroscopic	2.3%	2.0%	1.9%	2.4%	4.4%	8.9%	up to 60 % RH	3.4%	about 2%	N[C@@H](CC(=O)N1CCn2c(nnc2C(F)(F)F)C1)Cc1cc(F)c(F)cc1F [Form S14, Sitagliptin sulfate]	solubility ([2]; aqueous medium, aqueous buffer, pH 4.5 37° C.): 500 mg/mL; solubility ([2]; aqueous medium, aqueous buffer, pH 6.8 37° C.): 330 mg/mL; solubility ([2]; aqueous medium, aqueous buffer, pH 7.8 37° C.): 300 mg/mL; solubility ([2]; aqueous medium, simulated gastric fluid, pH 1.2, 37° C.): 500 mg/mL; Solubility in different aqueous media ([2]; different aqueous media): highly soluble; solubility ([2]; Water 37° C.): 300 mg/mL; Chemical and polymorphic stability [3]: No degradation or polymorphic transformation; Form after storage (XRPD) ([4]; 80% RH at 25° C. for 7 days): Si; Form after storage (XRPD) ([4]; 100% RH at 25° C. for 7 days): polymorphic mixture of form S1 and form S11
low hygroscopicity	2.9%	2.9%	2.9%	2.9%	4.4%	8.9%	up to 60 % RH	3.0%	about 2.9%	N[C@@H](CC(=O)N1CCn2c(nnc2C(F)(F)F)C1)Cc1cc(F)c(F)cc1F [Form S16, Sitagliptin sulfate]	Constant water content ([1]; corresponds to the sesquihydrate): 2.9%; Solubility classification ([5]; classification of the European Pharmacopoeia Commission 01/2008:5110): freely soluble; solubility ([5]; in 1 mL of water, read-out: Amount soluble in 1 mL of water): ≥ 100 mg/mL
